# Several values for one entry are separate records, joined by “and”; a condition that tells them apart may be missing. Equal values may be shown once. Where a name gives a salt, the structure may show the parent alone.
# Assays:
# [1] = Dissolution studies of Lasofoxifene in organic solvents and surfactants; type: physicochemical; settings: Lasofoxifene 1 mg/ml in the labelled solvent/surfactant; visual examination
# [2] = as above; type: physicochemical; settings: for Dissolution of Lasofoxifene in various organic solvents and surfactants, 2 mg/ml: Lasofoxifene 2 mg/ml in the labelled solvent/surfactant; for Dissolution of Lasofoxifene in various organic solvents and surfactants, 2 mg/ml / Dissolution of Lasofoxifene in various organic solvents and surfactants, 3 mg/ml / Dissolution of Lasofoxifene in various organic solvents and surfactants, 6 mg/ml: visual examination; for Dissolution of Lasofoxifene in various organic solvents and surfactants, 3 mg/ml: Lasofoxifene 3 mg/ml in the labelled solvent/surfactant; for Dissolution of Lasofoxifene in various organic solvents and surfactants, 6 mg/ml: Lasofoxifene 6 mg/ml in the labelled solvent/surfactant
# Protocol: The solubility of Lasofoxifene was investigated by screening various organic solvents and surfactants in increasing concentrations. The term “formulation” may refer to a pharmaceutical composition comprising […] pharmaceutically acceptable excipients.
# First, 1 mg of Lasofoxifene was weighed into Eppendorf vessels and 500 μl of organic solvents and surfactants as listed in Table 20 were added. In cases of insufficient dissolution of the API, samples were treated with ultrasound for 30 min and, if necessary, heated to 50° C. while shaking (300 rpm). Afterwards, samples were examined visually regarding drug dissolution. In case of entire dissolution, the experiment was repeated with increasing drug concentrations until maximum dissolution was achieved. In addition, further organic solvents and surfactants were tested.
# [3] = system: vaginal epithelium; assay: Ovariectomized rat dosing frequency study: thickness of the vaginal epithelium (H & E histomorphometry); type: in vivo; set-up: unit not given here; settings: individual animals
# Excerpt: (§1) A total of 96 young, about 6-8 weeks old, female Sprague Dawley rats were used in this pilot study. The rats were randomized by body weight into six (6) per group and sixteen (16) groups. Ninety (N=90) of the animals were ovariectomized (OVX), and six (N=6) of the animals have a sham OVX surgery. One group of six (6) animals were terminated along with the sham-operated group at Day-14 post-OVX surgery. Three groups of eighteen (18) animals were respectively terminated along with the vehicle group at Day-14, Day-17 or Day-21 post-OVX surgery. The dosing regimens, starting on Day 14 post OVX, by inserting a capsule containing the desired Lasofoxifene formulations (e.g., Test Articles F-1-L, F-1-H, F-2-L, F-2-H) into vaginal tract under brief general anesthesia.
# (§2) Rats were assigned to treatment groups by randomization in BioBook system (IDBS) based on the body weights. Grouping according to the below table 1. Each rat was dosed with ready to use solution, […] into vaginal tract with a syringe.
# (§3) Annotation: Groups 1 (N=6): Day-0 vehicle; dose once at 100 μL on Day-0 at 14-day post OVX, and terminate at Day-14 post OVX. Groups 2 (N=6): Day-3 vehicle; dose once at 100 μL on Day-0 at 14-day post OVX, and terminate at Day-17 post OVX. Groups 3 (N=6): Day-7 vehicle; dose once at 100 μL on Day-0 at 14-day post OVX, and terminate at Day-21 post OVX. Groups 4 (N=6): Day-0 sham: terminate at Day-14 post sham-operation. Groups 5 (N=6): F-1-L; dose once at 0.3 μg/kg (100 μL) on Day-0 at 14-day post OVX, and terminated at Day-3 after dosing. Groups 6 (N=6): F-1-H; dose once at 3.0 μg/kg (100 μL) on Day-0 at 14-day post OVX, and terminated at Day-3 after dosing. Groups 7 (N=6): F-2-L; dose once at 0.3 μg/kg (100 μL) on Day-0 at 14-day post OVX, and terminated at Day-3 after dosing. Groups 8 (N=6): F-2-H; dose once at 3.0 μg/kg (100 μL) on Day-0 at 14-day post OVX, and terminated at Day-3 after dosing. Groups 9 (N=6): F-1-L; dose once at 0.3 μg/kg (100 μL) on Day-0 at 14-day post OVX, and terminated at Day-7 after dosing. Groups 10 (N=6): F-1-H; dose once at 3.0 μg/kg (100 μL) on Day-0 at 14-day post OVX, and terminated at Day-7 after dosing. Groups 11 (N=6): F-2-L; dose once at 0.3 μg/kg (100 μL) on Day-0 at 14-day post OVX, and terminated at Day-7 after dosing. Groups 12 (N=6): F-2-H; dose once at 3.0 μg/kg (100 μL) on Day-0 at 14-day post OVX, and terminated at Day-7 after dosing. Groups 13 (N=6): F-1-L; dose twice at respectively 0.3 μg/kg (100 μL) on Day-0 and Day-4 at 14-day and 18-day post OVX, and terminated at Day-7 after dosing. Groups 14 (N=6): F-1-H; dose twice at respectively 3.0 μg/kg (100 μL) on Day-0 and Day-4 at 14-day and 18-day post OVX, and terminated at Day-7 after dosing. Groups 15 (N=6): F-2-L; dose twice at respectively 0.3 μg/kg (100 μL) on Day-0 and Day-4 at 14-day and 18-day post OVX, and terminated at Day-7 after dosing. Groups 16 (N=6): F-2-H; dose twice at respectively 3.0 μg/kg (100 μL) on Day-0 and Day-4 at 14-day and 18-day post OVX, and terminated at Day-7 after dosing. Body Weight
# (§4) All animals were humanely sacrificed by CO2 and the vaginal and uterine wet-weight were collected from each, and about 0.5 mL blood were collected for analysis of serum cholesterol level. Each uterus and vagina was weighed separately and was placed in 10% NBF for at least 48 hours before being sent to Histology Laboratory for tissue processing. The paraffin blocks of these tissues were sectioned, about 4-8 μm in thickness, and one section were stained with H & E for general microscopic evaluation, and one section were stained with PAS for assessment of mucification of the epithelium.
# The H & E stained sections were used to measure the height of the vaginal epithelium at minimum of ten (10) sites per slide. Photomicrographs of the slides were included in the appendix or burned on a DVD disc to accompany the final report. […]
# [4] = system: Uterine; assay: Ovariectomized rat dosing frequency study: mucification, Uterine (0-4 scale); type: in vivo; settings: individual animals
# [5] = system: Uterine; assay: Ovariectomized rat dosing frequency study: epithelium thickness, Uterine; type: in vivo; set-up: unit not given here; settings: individual animals
# [6] = system: vaginal epithelium; assay: Ovariectomized rat dosing frequency study: mucification of vaginal epithelium (PAS staining, 0-4 scale); type: in vivo; settings: individual animals
# Excerpt: as §1, §2, §3, §4
# The PAS stained sections were used to evaluate the amount of mucification by visual approximation on a 0-4 scale, with the 4 stands for the highest amount.
# Data were analyzed using GraphPad Prism software (GraphPad Software, Inc., La Jolla, Calif., USA) and are expressed as the mean±SD. […]
compound,measurement,setting,value
"CCOC(=O)CC(CC(=O)OCC)(OC(C)=O)C(=O)OCC [Triethyl acetyl citrate (TEAC), Triethyl acetyl citrate]","Dissolution of Lasofoxifene in various organic solvents and surfactants, 1 mg/ml",[1],not dissolved
"CCOC(=O)CC(O)(CC(=O)OCC)C(=O)OCC [Triethyl citrate (TEC), Triethyl citrate]","Dissolution of Lasofoxifene in various organic solvents and surfactants, 1 mg/ml",[1],not dissolved
"CCOCCOCCO [Transcutol (TC), Diethylene glycol monoethyl ether]","Dissolution of Lasofoxifene in various organic solvents and surfactants, 1 mg/ml",[1],dissolved
same,"Dissolution of Lasofoxifene in various organic solvents and surfactants, 2 mg/ml",[2],dissolved
same,"Dissolution of Lasofoxifene in various organic solvents and surfactants, 3 mg/ml",[2],dissolved
"CC(O)CO (stereo not shown) [Propylene glycol (PG), Propylene glycol]","Dissolution of Lasofoxifene in various organic solvents and surfactants, 1 mg/ml",[1],dissolved
same,"Dissolution of Lasofoxifene in various organic solvents and surfactants, 2 mg/ml",[2],dissolved*
same,"Dissolution of Lasofoxifene in various organic solvents and surfactants, 3 mg/ml",[2],partially
same,"Dissolution of Lasofoxifene in various organic solvents and surfactants, 6 mg/ml",[2],not dissolved
"C[S+](C)[O-] [DMSO, dimethyl sulfoxide]","Dissolution of Lasofoxifene in various organic solvents and surfactants, 1 mg/ml",[1],dissolved
same,"Dissolution of Lasofoxifene in various organic solvents and surfactants, 2 mg/ml",[2],dissolved
same,"Dissolution of Lasofoxifene in various organic solvents and surfactants, 3 mg/ml",[2],dissolved
same,"Dissolution of Lasofoxifene in various organic solvents and surfactants, 6 mg/ml",[2],dissolved
"CO[C@H]1CO[C@H]2[C@@H]1OC[C@H]2OC [Isosorbide dimethyl ether (DMI), Isosorbide dimethyl ether]","Dissolution of Lasofoxifene in various organic solvents and surfactants, 1 mg/ml",[1],dissolved*
same,"Dissolution of Lasofoxifene in various organic solvents and surfactants, 2 mg/ml",[2],partially
same,"Dissolution of Lasofoxifene in various organic solvents and surfactants, 3 mg/ml",[2],not dissolved
Oc1ccc2c(c1)CC[C@H](c1ccccc1)[C@@H]2c1ccc(OCCN2CCCC2)cc1 [Lasofoxifene],"Thickness of the vaginal epithelium, Vagina",[3]; group G3,23 (2×) and 22 and 21 and 15 and 18
same,"Thickness of the vaginal epithelium, Vagina",[3]; group G5,26 and 30 and 32 (2×) and 27 and 16
same,"Thickness of the vaginal epithelium, Vagina",[3]; group G6,29 (2×) and 24 and 41 and 27 and 22
same,"Thickness of the vaginal epithelium, Vagina",[3]; group G7,27 and 18 and 21 and 20 (2×) and 17
same,"Thickness of the vaginal epithelium, Vagina",[3]; group G8,32 (2×) and 24 and 28 and 14 and 26
same,"Thickness of the vaginal epithelium, Vagina",[3]; group G9,21 and 15 (2×) and 25 and 17 and 18
same,"Thickness of the vaginal epithelium, Vagina",[3]; group G10,27 and 19 and 17 (2×) and 14 and 22
same,"Thickness of the vaginal epithelium, Vagina",[3]; group G11,17 (2×) and 20 and 15 and 25 and 19
same,"Thickness of the vaginal epithelium, Vagina",[3]; group G12,16 and 21 and 17 and 18 and 20 and 19
same,"Thickness of the vaginal epithelium, Vagina",[3]; group G13,20 (3×) and 18 and 23 and 19
same,"Thickness of the vaginal epithelium, Vagina",[3]; group G14,15 and 23 and 13 and 16 and 18 and 25
same,"Thickness of the vaginal epithelium, Vagina",[3]; group G15,21 and 22 and 23 (3×) and 25
same,"Thickness of the vaginal epithelium, Vagina",[3]; group G16,22 and 28 and 20 and 19 (2×) and 16
same,"Mucification, Uterine",[4]; group G3,0
same,"Mucification, Uterine",[4]; group G5,0
same,"Mucification, Uterine",[4]; group G6,0
same,"Mucification, Uterine",[4]; group G7,0
same,"Mucification, Uterine",[4]; group G8,0
same,"Mucification, Uterine",[4]; group G9,0
same,"Mucification, Uterine",[4]; group G10,0
same,"Mucification, Uterine",[4]; group G11,0
same,"Mucification, Uterine",[4]; group G12,0
same,"Mucification, Uterine",[4]; group G13,0
same,"Mucification, Uterine",[4]; group G14,0
same,"Mucification, Uterine",[4]; group G15,0
same,"Mucification, Uterine",[4]; group G16,0
same,"Thickness, Uterine",[5]; group G3,6 and 7 (3×) and 8 (2×)
same,"Thickness, Uterine",[5]; group G5,9 (4×) and 8 (2×)
same,"Thickness, Uterine",[5]; group G6,8 (3×) and 9 and 6 (2×)
same,"Thickness, Uterine",[5]; group G7,8 (3×) and 7 (2×) and 9
same,"Thickness, Uterine",[5]; group G8,6 and 8 (2×) and 10 (2×) and 7
same,"Thickness, Uterine",[5]; group G9,7 (2×) and 9 (2×) and 6 (2×)
same,"Thickness, Uterine",[5]; group G10,9 (3×) and 8 (2×) and 11
same,"Thickness, Uterine",[5]; group G11,5 and 7 (4×) and 9
same,"Thickness, Uterine",[5]; group G12,9 and 7 (3×) and 6 and 8
same,"Thickness, Uterine",[5]; group G13,6 (2×) and 7 and 8 (2×) and 9
same,"Thickness, Uterine",[5]; group G14,8 (3×) and 6 and 7 and 9
same,"Thickness, Uterine",[5]; group G15,9 and 8 (5×)
same,"Thickness, Uterine",[5]; group G16,6 (2×) and 7 (3×) and 8
same,"Mucification of vaginal epithelium, Vagina",[6]; group G3,2 (4×) and 3 (2×)
same,"Mucification of vaginal epithelium, Vagina",[6]; group G5,3 and 1 (3×) and 2 (2×)
same,"Mucification of vaginal epithelium, Vagina",[6]; group G6,2 (2×) and 1 (4×)
same,"Mucification of vaginal epithelium, Vagina",[6]; group G7,1 (2×) and 2 (4×)
same,"Mucification of vaginal epithelium, Vagina",[6]; group G8,2 (2×) and 1 (3×) and 3
same,"Mucification of vaginal epithelium, Vagina",[6]; group G9,3 (3×) and 1 and 2 (2×)
same,"Mucification of vaginal epithelium, Vagina",[6]; group G10,3 (3×) and 2 (3×)
same,"Mucification of vaginal epithelium, Vagina",[6]; group G11,3 (2×) and 4 and 1 and 2 (2×)
same,"Mucification of vaginal epithelium, Vagina",[6]; group G12,3 (4×) and 2 and 4
same,"Mucification of vaginal epithelium, Vagina",[6]; group G13,4 (4×) and 3 (2×)
same,"Mucification of vaginal epithelium, Vagina",[6]; group G14,4 (3×) and 3 (3×)
same,"Mucification of vaginal epithelium, Vagina",[6]; group G15,2 (2×) and 3 (4×)
same,"Mucification of vaginal epithelium, Vagina",[6]; group G16,4 and 3 (4×) and 2
"CCCCOC(=O)CC(O)(CC(=O)OCCCC)C(=O)OCCCC [Tributyl citrate (TBC), Tributyl citrate]","Dissolution of Lasofoxifene in various organic solvents and surfactants, 1 mg/ml",[1],not dissolved
same,Dissolution of Lasofoxifene in more lipophilic excipients,[2]; in the labelled excipient,could not be dissolved
"OCC(O)CO [Glycerol 99%, Glycerol]","Dissolution of Lasofoxifene in various organic solvents and surfactants, 1 mg/ml",[1],dissolved*
same,"Dissolution of Lasofoxifene in various organic solvents and surfactants, 2 mg/ml",[2],partially
same,"Dissolution of Lasofoxifene in various organic solvents and surfactants, 3 mg/ml",[2],not dissolved
"CCCCOC(=O)CC(CC(=O)OCCCC)(OC(C)=O)C(=O)OCCCC [Tributyl acetyl citrate (TBAC), Tributyl acetyl citrate]","Dissolution of Lasofoxifene in various organic solvents and surfactants, 1 mg/ml",[1],not dissolved
CCCCCCCC/C=C\CCCCCCCC(=O)OCC [Ethyloleate],"Dissolution of Lasofoxifene in various organic solvents and surfactants, 1 mg/ml",[1],not dissolved
"OCC(O)CO [Glycerol 85%, Glycerol]","Dissolution of Lasofoxifene in various organic solvents and surfactants, 1 mg/ml",[1],dissolved
same,"Dissolution of Lasofoxifene in various organic solvents and surfactants, 2 mg/ml",[2],partially
same,"Dissolution of Lasofoxifene in various organic solvents and surfactants, 3 mg/ml",[2],not dissolved
"CC(=O)OCC(COC(C)=O)OC(C)=O [Triacetin (TAC), Triacetin]","Dissolution of Lasofoxifene in various organic solvents and surfactants, 2 mg/ml",[2],not dissolved

# From patent US10857127B2, “Vaginal delivery systems containing selective estrogen receptor modulator (SERM) and uses thereof” (Azure Biotech, Inc., priority 2016, dated 2020)
